{"source": "paper PMC3024946", "about": "“Hydroxyproline-containing collagen analogs trigger the release and activation of collagen-sequestered proMMP-2 by competition with prodomain-derived peptide P33-42” (Fibrogenesis & Tissue Repair, 2011)", "key": {"proMMP-9 / CI [1]": {"target": "T1, proMMP-9 / CI (Homo sapiens, UniProt P14780)", "T1 construct": "prodomain-containing proMMP-2 or proMMP-9; purchased Invitek", "T1 sequence (P14780 20-707 limits assumed)": "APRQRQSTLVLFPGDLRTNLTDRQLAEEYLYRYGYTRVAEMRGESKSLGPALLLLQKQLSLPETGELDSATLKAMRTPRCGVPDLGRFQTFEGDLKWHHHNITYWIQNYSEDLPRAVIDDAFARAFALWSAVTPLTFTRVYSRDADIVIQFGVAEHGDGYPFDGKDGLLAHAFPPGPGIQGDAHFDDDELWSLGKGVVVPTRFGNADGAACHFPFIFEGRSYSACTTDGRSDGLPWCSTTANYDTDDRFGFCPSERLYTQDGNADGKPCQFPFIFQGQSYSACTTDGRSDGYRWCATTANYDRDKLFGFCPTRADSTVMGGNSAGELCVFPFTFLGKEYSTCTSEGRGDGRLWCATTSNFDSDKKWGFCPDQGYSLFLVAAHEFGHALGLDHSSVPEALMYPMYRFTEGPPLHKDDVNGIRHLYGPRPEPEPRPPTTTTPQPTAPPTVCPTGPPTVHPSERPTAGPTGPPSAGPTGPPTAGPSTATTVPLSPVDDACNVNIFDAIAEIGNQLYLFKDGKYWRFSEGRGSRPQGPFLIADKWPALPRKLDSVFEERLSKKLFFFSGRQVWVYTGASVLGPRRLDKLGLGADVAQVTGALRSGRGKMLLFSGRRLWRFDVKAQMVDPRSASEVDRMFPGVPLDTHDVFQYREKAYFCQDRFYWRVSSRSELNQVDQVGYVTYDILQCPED", "experiment": "SPR, competition of proMMP-9 binding to CI, MMP activity buffer", "settings": "proMMP-9 (25-150 nM), 10-fold molar excess", "experimental": "(§1) Sensor chip preparations and SPR measurements were performed using a BiacoreX device and the Bia-evaluation software (version 3.2; Biacore, Uppsala, Sweden). The pepsin-resistant triple-helical part of human fibrillar CI (100 μg/ml) in 10 mM acetate coupling buffer, pH 4.8, was immobilized to a dextran matrix-sensor chip at a flow rate of 5 μl/min, resulting in 5,500 resonance units from CI covalently linked via its primary amino groups. The control flow cell was prepared using the coupling buffer without CI. Surfaces were activated and blocked as described previously. […] The effects of (GPO)10, GAP, (POG)5, (GPP)10 and P33-42 on MMP-2 and MMP-9 binding to CI and their enzymatic activity were determined by adding the binding competitors to the (pro- and act)MMP-2 and MMP-9 solution in 10- to 150-fold molar excesses. Effects independent of MMP-2 and MMP-9 activity were monitored in the presence of Ro 28-2653 (1 μM) during SPR analysis. […] Kinetic parameters were analyzed using the 1:1 binding model with drifting baseline and subtraction of the control flow cell binding from sensorgrams obtained with immobilized CI. Binding constants (Kd) were calculated from the association (ka) and dissociation rates (kd) obtained from individual binding curves at different concentrations. […]"}, "ProMMP-2 [2]": {"system": "ProMMP-2", "experiment": "Substrate gel zymography of treated proMMP-2", "type": "biochemical, human", "settings": "50 ng proMMP-2, 2-h incubation at room temperature", "experimental": "Samples containing MMP-2 were diluted with zymogram sample buffer (Bio-Rad, Munich, Germany) and separated on homogeneous 10% SDS-PAGE gels containing 1 mg/ml (wt/vol) gelatine (Bio-Rad), washed with excess MMP activity buffer containing 2.5% (vol/vol) Triton X-100 to remove SDS, and incubated with MMP activity buffer for 24 h. Gels were stained with Coomassie Blue R-250. Gels showing proteolytic bands corresponding to proMMP-2 (72 kDa) or actMMP-2 (62 kDa) were scanned (Plustek, Norderstedt, Germany) and analyzed from inverted grayscale images."}, "actMMP-2 / CI [3]": {"target": "T2, actMMP-2 / CI (Homo sapiens, UniProt P08253)", "T2 construct": "purchased Invitek", "T2 sequence (P08253 110-660)": "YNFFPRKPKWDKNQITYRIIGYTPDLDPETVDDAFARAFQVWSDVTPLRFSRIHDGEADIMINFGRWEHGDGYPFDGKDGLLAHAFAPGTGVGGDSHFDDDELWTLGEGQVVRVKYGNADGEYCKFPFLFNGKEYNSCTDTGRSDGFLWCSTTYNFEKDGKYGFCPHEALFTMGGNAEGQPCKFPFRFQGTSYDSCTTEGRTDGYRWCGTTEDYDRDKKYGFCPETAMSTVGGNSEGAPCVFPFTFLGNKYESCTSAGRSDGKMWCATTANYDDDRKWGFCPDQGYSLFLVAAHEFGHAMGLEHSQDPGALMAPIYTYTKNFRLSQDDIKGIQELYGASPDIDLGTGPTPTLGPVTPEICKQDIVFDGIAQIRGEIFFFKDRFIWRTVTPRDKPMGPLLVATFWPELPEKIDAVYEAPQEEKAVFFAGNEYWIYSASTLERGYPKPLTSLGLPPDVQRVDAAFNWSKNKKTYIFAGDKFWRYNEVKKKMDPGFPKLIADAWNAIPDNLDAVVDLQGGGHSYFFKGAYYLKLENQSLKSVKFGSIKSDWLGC", "experiment": "SPR, competition of actMMP-2 binding to CI, nonactivating buffer", "experimental": "as §1"}, "actMMP-2 / CI [4]": {"target": "T2, actMMP-2 / CI", "experiment": "SPR, competition of actMMP-2 binding to CI, MMP activity buffer with Ro 28-2653", "settings": "actMMP-2 100 nM, 1 μM Ro 28-2653, 25°C, mean ± SD, at least three experiments", "experimental": "as §1"}, "proMMP-9 / CI [5]": {"target": "T1, proMMP-9 / CI", "experiment": "SPR, competition of proMMP-9 binding to CI, nonactivating buffer", "experimental": "as §1"}, "ProMMP-2 [6]": {"system": "ProMMP-2", "experiment": "Fluorogenic short-substrate assay, activation of proMMP-2", "type": "biochemical, human", "settings": "10-fold excess; 50 ng proMMP-2; 800 nM MCA-Pro-Leu-Gly-Leu-Dnp-Dap-Ala-Arg-NH2; 37°C; on BSA or CI", "experimental": "Enzymatic activities of MMPs were studied spectrofluorimetrically by cleavage of fluorogenic substrates in MMP activity buffer within 2 to 5 h. For gelatinases 800 nM MCA-Pro-Leu-Gly-Leu-Dnp-Dap-Ala-Arg-NH2 (λex/em 328/393 nm; Bachem, Bubendorf, Switzerland) or 10 μg/ml DQ-gelatine were used, according to the method described by Knight et al. for collagenases 800 nM MCA-Pro-Cha-Gly-Nva-His-Ala-Dpa-NH2 (λex/em 280/360 nm; Anaspec, San José, CA, USA). In some experiments, proMMP-2 was fully activated in the presence of 1 mM APMA prior to the kinetic measurements. A quantity of 50 ng pro- or actMMP-2 alone or mixed with 10- to 150-fold molar excesses of (GPO)10, GAP, P33-42 or mixtures of (GPO)10 and P33-42, were added to CI-coated, BSA-coated (1 μg/well both) or uncoated wells containing 150 μl of the respective substrate solution. The peptide P33-42 was purchased from the Institute of Biochemistry (Humboldt-University, Berlin, Germany). The influence of CI on MMP-2 enzymatic activity against the quenched fluorescent substrate could be excluded. Background subtraction (measurement without MMPs) was applied to all curves. All experiments were performed with a fluorescence microplate reader (Molecular Devices, Sunnyvale, CA, USA) and black 96-well microtiter plates with a clear bottom (Greiner bio-one, Frickenhausen, Germany)."}}, "note": "Entries after “also recorded” stand apart in the source; their conditions may differ.", "data": [{"substance": "H-Gly-Cys-Hyp-(Gly-Pro-Hyp)10-Gly-Cys-Hyp-Gly-NH2 [(GPO)10, triple-helical Hyp-containing collagen analog]", "values": [{"measurement": "effect on binding to CI", "setting": "proMMP-9 / CI [1]", "result": "abolished binding of proMMP-9 to CI"}, {"measurement": "substrate zymography, prodomain-free actMMP-2 band", "setting": "ProMMP-2 [2]", "result": "faint band of prodomain-free actMMP-2; also recorded: not accompanied by strong prodomain cleavage"}, {"measurement": "Off rate", "setting": "actMMP-2 / CI [3]; actMMP-2 (100 nM) binding to CI with 10× (GPO)10, PBS, 0.05% Tween 20", "result": 0.56, "unit": "s⁻¹"}, {"measurement": "effect on binding to CI", "setting": "actMMP-2 / CI [3]; actMMP-2, 10-fold molar excess", "result": "only slightly impaired"}, {"measurement": "Kd for binding to CI in the presence of 10-fold molar excess of competitor", "setting": "actMMP-2 / CI [4]", "result": "2,710.0 ± 90.0 nM"}, {"measurement": "Off rate", "setting": "proMMP-9 / CI [5]; proMMP-9 (100 nM) binding to CI with 10× (GPO)10, PBS, 0.05% Tween 20", "result": 0.22, "unit": "s⁻¹"}, {"measurement": "effect on binding to CI", "setting": "proMMP-9 / CI [5]; proMMP-9, 10-fold molar excess", "result": "more pronounced effects"}, {"measurement": "activation of proMMP-2", "setting": "ProMMP-2 [6]", "result": "resulted in the same plateau activity as actMMP-2 without (GPO)10"}]}]}
